The values below come from US20260242419A1, “A CYCLIC PEPTIDE FOR TRAPPING INTERLEUKIN-1 BETA” (Merck Sharp & Dohme LLC, priority 2023, published 2026).

Starred links: 1 amine or outer side, 2 acyl side, 3 side chain; linkers in the order of their positions; H or OH if unused. Non-standard residues stand in square brackets, D forms with d. Residues, ends and D or L forms follow the SMILES beside them. Trp(βS-Me,4-F) = C[C@@H](c1c[nH]c2cccc(F)c12)[C@H](N)C(=O)O; Bip(4'-COOH) = N[C@@H](Cc1ccc(-c2ccc(C(=O)O)cc2)cc1)C(=O)O; Ala(1-bicyclo(1.1.1)pentyl) = N[C@@H](CC12CC(C1)C2)C(=O)O; Phe(4-(4-pyridyl)) = N[C@@H](Cc1ccc(-c2ccncc2)cc1)C(=O)O; dPro(3S-(4-F-Bn)) = O=C(O)[C@@H]1NCC[C@@H]1Cc1ccc(F)cc1; X27 = COc1ncc(-c2ccc(C[C@H](N[*:1])C(=O)[*:2])cc2)cn1; X12 = Cn1ccnc1-c1ccc(C[C@H](N[*:1])C(=O)[*:2])cc1; X40 = O=C([C@H](Cc1ccc(-c2cncnc2)cc1)N[*:1])[*:2]; X4 = O=C([C@H]1[C@@H](Cc2ccncc2)CCN1[*:1])[*:2]; Ala(pyrimidin-5-yl) = N[C@@H](Cc1cncnc1)C(=O)O; Phe(4-COOH) = N[C@@H](Cc1ccc(C(=O)O)cc1)C(=O)O; Pro(cis-4-F) = O=C(O)[C@@H]1C[C@H](F)CN1; X6 = O=C([C@H](Cc1ccncn1)N[*:1])[*:2]; d(αMeD) = C[C@@](N)(CC(=O)O)C(=O)O; 4Pal = N[C@@H](Cc1ccncc1)C(=O)O; Dab = NCC[C@H](N)C(=O)O; Aib = CC(C)(N)C(=O)O

In this experiment the target is T1, IL-1β (Homo sapiens, UniProt P01584).
T1 construct: purchased BioLegend 579404
T1 sequence (P01584 117-269): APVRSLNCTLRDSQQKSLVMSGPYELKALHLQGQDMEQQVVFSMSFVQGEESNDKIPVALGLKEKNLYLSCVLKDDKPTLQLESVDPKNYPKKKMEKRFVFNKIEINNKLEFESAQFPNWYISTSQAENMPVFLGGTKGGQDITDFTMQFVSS
In words: IL-6 assay in MRC5 cells: inhibition of IL-1β induced IL-6 secretion (AlphaLISA). Type of experiment: cell-based. Conditions: inhibition of IL-1β induced IL-6 secretion in MRC5 cells; compound pre-incubated 1 hour with recombinant human IL-1β; read-out: MRC5 IC50. An outline of the steps:
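Compound was pre-incubated 1 h at ambient temperature with recombinant human IL-1β at 2λ EC80 before adding human lung fibroblast MRC5 cells (3000/well) in EMEM with 0.025% BSA. After overnight culture at 37 °C, 5% CO2, secreted IL-6 in conditioned medium was measured by AlphaLISA; IC50 from 4-parameter logistic fits.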
Take `C[C@@H](c1c[nH]c2cccc(F)c12)[C@@H]1NC(=O)[C@@H]2C[C@H](F)CN2C(=O)CNC(=O)[C@H](Cc2ccc(C(=O)O)cc2)NC(=O)[C@H](Cc2ccncc2)NC(=O)[C@H](Cc2ccc(-c3nccn3C)cc2)NC(=O)[C@H]2[C@@H](Cc3ccc(F)cc3)CCN2C(=O)CNC(=O)[C@H](CCN)NC(=O)[C@H](CCC(N)=O)NC(=O)[C@H](Cc2cncnc2)NC(=O)[C@@](C)(CC(=O)O)NC(=O)[C@H](Cc2c[nH]c3ccccc23)NC(=O)[C@H](CO)NC(=O)C(C)(C)NC1=O` [Example 280] (cyclo([X12][4Pal][Phe(4-COOH)]G[Pro(cis-4-F)][Trp(βS-Me,4-F)][Aib]SW[d(αMeD)][Ala(pyrimidin-5-yl)]Q[Dab]G[dPro(3S-(4-F-Bn))])): the IC50 was 0.016 nM.

In the case of `COc1ncc(-c2ccc(C[C@@H]3NC(=O)[C@H]4[C@@H](Cc5ccc(F)cc5)CCN4C(=O)CNC(=O)[C@H](CCN)NC(=O)[C@H](CCC(N)=O)NC(=O)[C@H](Cc4cncnc4)NC(=O)[C@@](C)(CC(=O)O)NC(=O)[C@H](Cc4c[nH]c5ccccc45)NC(=O)[C@H](CO)NC(=O)C(C)(C)NC(=O)[C@H]([C@@H](C)c4c[nH]c5cccc(F)c45)NC(=O)[C@@H]4C[C@H](F)CN4C(=O)CNC(=O)[C@H](Cc4ccc(C(=O)O)cc4)NC(=O)[C@H](Cc4ccncc4)NC3=O)cc2)cn1` [Example 281] (cyclo([X27][4Pal][Phe(4-COOH)]G[Pro(cis-4-F)][Trp(βS-Me,4-F)][Aib]SW[d(αMeD)][Ala(pyrimidin-5-yl)]Q[Dab]G[dPro(3S-(4-F-Bn))])), the IC50 turned out to be 0.012 nM.

As for `C[C@@H](c1c[nH]c2cccc(F)c12)[C@@H]1NC(=O)[C@@H]2C[C@H](F)CN2C(=O)CNC(=O)[C@H](Cc2ccc(C(=O)O)cc2)NC(=O)[C@H](Cc2ccncc2)NC(=O)[C@H](Cc2ccc(-c3cncnc3)cc2)NC(=O)[C@H]2[C@@H](Cc3ccc(F)cc3)CCN2C(=O)CNC(=O)[C@H](CCN)NC(=O)[C@H](CCC(N)=O)NC(=O)[C@H](Cc2cncnc2)NC(=O)[C@@](C)(CC(=O)O)NC(=O)[C@H](Cc2c[nH]c3ccccc23)NC(=O)[C@H](CO)NC(=O)C(C)(C)NC1=O` [Example 282] (cyclo([X40][4Pal][Phe(4-COOH)]G[Pro(cis-4-F)][Trp(βS-Me,4-F)][Aib]SW[d(αMeD)][Ala(pyrimidin-5-yl)]Q[Dab]G[dPro(3S-(4-F-Bn))])), the IC50 was found to be 0.014 nM.

For the compound `C[C@@H](c1c[nH]c2cccc(F)c12)[C@@H]1NC(=O)[C@@H]2C[C@H](F)CN2C(=O)CNC(=O)[C@H](Cc2ccc(C(=O)O)cc2)NC(=O)[C@H](Cc2ccncc2)NC(=O)[C@H](Cc2ccc(-c3ccncc3)cc2)NC(=O)[C@H]2[C@@H](Cc3ccc(F)cc3)CCN2C(=O)CNC(=O)[C@H](CCN)NC(=O)[C@H](CCC(N)=O)NC(=O)[C@H](Cc2cncnc2)NC(=O)[C@@](C)(CC(=O)O)NC(=O)[C@H](Cc2c[nH]c3ccccc23)NC(=O)[C@H](CO)NC(=O)C(C)(C)NC1=O` [Example 283] (cyclo([Phe(4-(4-pyridyl))][4Pal][Phe(4-COOH)]G[Pro(cis-4-F)][Trp(βS-Me,4-F)][Aib]SW[d(αMeD)][Ala(pyrimidin-5-yl)]Q[Dab]G[dPro(3S-(4-F-Bn))])), the IC50 worked out at 0.016 nM.

`C[C@@H](c1c[nH]c2cccc(F)c12)[C@@H]1NC(=O)[C@@H]2C[C@H](F)CN2C(=O)CNC(=O)[C@H](Cc2ccc(C(=O)O)cc2)NC(=O)[C@H](CC23CC(C2)C3)NC(=O)[C@H](Cc2ccc(-c3ccc(C(=O)O)cc3)cc2)NC(=O)[C@H]2[C@@H](Cc3ccncc3)CCN2C(=O)CNC(=O)[C@H](CCN)NC(=O)[C@H](CCC(N)=O)NC(=O)[C@H](Cc2ccncn2)NC(=O)[C@@](C)(CC(=O)O)NC(=O)[C@H](Cc2c[nH]c3ccccc23)NC(=O)[C@H](CO)NC(=O)C(C)(C)NC1=O` [Example 284] (cyclo([Bip(4'-COOH)][Ala(1-bicyclo(1.1.1)pentyl)][Phe(4-COOH)]G[Pro(cis-4-F)][Trp(βS-Me,4-F)][Aib]SW[d(αMeD)][X6]Q[Dab]G[X4])): the IC50 amounted to 0.015 nM.
